Assay results taken from patent publication US20110014164A1, “EFFICIENT INDUCTION OF PLURIPOTENT STEM CELLS USING SMALL MOLECULE COMPOUNDS” (PRESIDENT AND FELLOWS OF HARVARD COLLEGE, priority 2008, published 2011).
Read-outs that look alike come from different tables or passages of the source.

Legend:
[1] = test system: MEFs infected with the four factors (Oct4, Sox2, Klf4 and c-Myc); format: cell-based, mouse
Protocol: FIG. 1(a) MEFs infected with the four factors (Oct4, Sox2, Klf4 and c-Myc) were treated with various chemicals for a week, the percentage of Oct4-GFP positive cells induced was measured through FACS analysis, and compared to infected MEFs without treatment or treated with DMSO (the solvent for Dexamethasone, SAHA and TSA). The chemicals used were: 5′-azaC (2 μM), dexamethasone (dex, 1 μM), 5′-azaC (2 μM) together with dexamethasone (1 μM), VPA (2 mM), SAHA (5 μM) and TSA (20 nM). n=4 for each treatment. For all figures in this study, standard deviations are indicated by error bars, and P values by two-tailed student t-test less than 0.05, 0.01 and 0.001 are indicated by one, two and three asterisks respectively.
To quantitate reprogramming efficiency, we established an assay based on Fluorescence-Activated Cell Sorting (FACS) analysis using an Oct4-GFP transgenic reporter, where the expression of the green fluorescent protein (GFP) is controlled by the promoter and enhancers of Oct4, a pluripotent marker gene^14.
MEFs were derived from e13.5 embryos hemizygous for the Oct4-GFP transgenic allele. Embryos were sexed by inspecting gonads for the pattern of Oct4-GFP expression. Gonads and internal organs were removed before processing the embryos for MEF isolation. To generate iPS cells that can be identified in mouse chimeras after blastocyst injection, we derived MEFs from e13.5 embryos that are hemizygous for Oct4-GFP and heterozygous for the Rosa26-lacZ reporter allele. MEFs were grown in DMEM supplemented with 10% FBS, L-glutamine, penicillin/streptoMycin, nonessential amino acids, and sodium pyruvate. MEFs in early passages (up to passage 5) were used for generation of iPS cells.
Moloney-based retroviral vector (pMXs) containing the murine complementary DNAs of Oct4, Sox2, c-Myc, and Klf4 were obtained from Addgene^1. These plasmids were co-transfected into 293T cells with packaging vectors (pUMVC and pCMV-VSVG), and viral supernatants were collected 48 hours post-transfection to infect MEFs. Two to three rounds of infection were performed during a 48 hour period. The first day after viral supernatants were removed was defined as 0 day post-infection. Infected MEFs were subsequently cultured in mouse ES cell media (Knockout DMEM supplemented with 15% Hyclone FBS, L-glutamine, penicillin/streptoMycin, nonessential amino acids, β-mercaptoethanol, and with 1000 U/ml LIF), and treated with small molecules or growth factors for a week starting from 1 or 2 days post-infection. […] All conditions were tested in quadruplicates.

[2] = test system: MEFs infected with the four factors (Oct4, Sox2, Klf4 and c-Myc); experiment: cells; format: cell-based, mouse; settings: 4-factor infected MEFs

Molecule: N#CC(=C(/N)Sc1ccccc1N)/C(C#N)=C(\N)Sc1ccccc1N [U0126]
- effect on reprogramming efficiency [1]: no significant effects

Molecule: COc1cccc(-c2cc(=O)c3ccccc3o2)c1N [PD98059]
- effect on reprogramming efficiency ([2]; 40 μM): no significant effects

Molecule: Wnt3a
- effect on reprogramming efficiency ([2]; 100 ng/ml): no significant effect

Molecule: CC(=O)O/N=C1/C(=C2/C(=O)Nc3cc(Br)ccc32)Nc2ccccc21 [BIO-Acetoxime]
- effect on reprogramming efficiency ([1]; 2 μM, 4-factor infected MEFs): no significant effect

Molecule: O=C(CCCCCCC(=O)Nc1ccccc1)NO [SAHA, suberoylanilide hydroxamic acid]
- improvement over the control DMSO treatment ([1]; 5 μM, 4-factor infected MEFs): 10 fold
- percentage of GFP positive cells ([1]; 5 μM, 4-factor infected MEFs): approximately 0.198% (±0.102%)

Molecule: C[C@@H]1C[C@H]2[C@@H]3CCC4=CC(=O)C=C[C@]4(C)[C@@]3(F)[C@@H](O)C[C@]2(C)[C@@]1(O)C(=O)CO [dexamethasone]
- improvement of the effect of 5′-azaC when used in combination [1]: 2.6 fold
- effect on reprogramming efficiency ([1]; 1 μM alone, 4-factor infected MEFs): no significant effect

Molecule: CC(/C=C/C(=O)NO)=C\[C@@H](C)C(=O)c1ccc(N(C)C)cc1 [TSA, trichostatin A]
- percentage of GFP positive cells ([1]; 20 nM, 4-factor infected MEFs): approximately 1.535% (±0.618%)

B1: BMP4: recombinant human Bmp4 from Roche (protein, UniProt P12644 293-408, looked up)
Bone morphogenetic protein 4: SPKHHSQRARKKNKNCRRHSLYVDFSDVGWNDWIVAPPGYQAFYCHGDCPFPLADHLNSTNHAIVQTLVNSVNSSIPKACCVPTELSAISMLYLDEYDKVVLKNYQEMVVEGCGCR
- effect on reprogramming efficiency ([2]; 100 ng/ml): had no effect
